Experimental data: patent publication US11214578B2, “Urea/carbamates FAAH MAGL or dual FAAH/MAGL inhibitors and uses thereof” (Northeastern University, priority 2014, dated 2022)

Key:
Format in all cases: biochemical
[1] = molecular target: T1, Rat MAGL (rMAGL) (Rattus norvegicus, UniProt Q8R431); assay: Fluorescent assay protocol for rMAGL; details: recombinant rat MAGL, procedure as for hMAGL; read-out: IC50 rMAGL
T1 construct: made in house; host or cells: E. coli
T1 sequence (Q8R431 1-303): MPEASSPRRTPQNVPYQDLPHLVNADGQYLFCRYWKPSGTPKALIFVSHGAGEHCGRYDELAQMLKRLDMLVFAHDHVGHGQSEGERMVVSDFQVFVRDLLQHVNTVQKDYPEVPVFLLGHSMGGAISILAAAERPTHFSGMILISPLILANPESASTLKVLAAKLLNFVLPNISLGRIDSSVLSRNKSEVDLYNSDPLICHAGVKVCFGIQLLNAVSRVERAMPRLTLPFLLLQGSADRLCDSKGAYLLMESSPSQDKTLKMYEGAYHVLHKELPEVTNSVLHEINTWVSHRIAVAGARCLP
Description: (§1) This medium throughput assay involved a 96-well plate format in which hMAGL activity was monitored by the hydrolysis of the substrate 7-hydroxy-6-methoxy-4-methylcoumarin ester (AHMMCE) to form the fluorescent product, coumarin. […] Upon the addition of AHMMCE, the reaction was incubated at 25° C. for 120 min; fluorescence readings were taken every 15 min at 360 nm/460 nm (λexcitation/λemission) using a Synergy HT Plate Reader (Bio-Tek, Winooski, Vt.). […] External standards were used to convert relative fluorescence units to the amount of 4-methylcoumarin formed. All MAGL assays were performed in triplicate for each inhibitor concentration, and IC50 values were calculated using Prizm software (GraphPad Software, Inc., San Diego, Calif.).
Procedure was followed as described for hMAGL.

[2] = molecular target: T2, Human MAGL (hMAGL) (Homo sapiens, UniProt Q99685); assay: Fluorescent assay protocol for hMAGL (AHMMCE substrate); details: recombinant human MAGL, AHMMCE substrate, 15 min preincubation; read-out: IC50 hMAGL
T2 construct: hexahistidine; made in house; host or cells: E. coli
T2 sequence (Q99685 1-303): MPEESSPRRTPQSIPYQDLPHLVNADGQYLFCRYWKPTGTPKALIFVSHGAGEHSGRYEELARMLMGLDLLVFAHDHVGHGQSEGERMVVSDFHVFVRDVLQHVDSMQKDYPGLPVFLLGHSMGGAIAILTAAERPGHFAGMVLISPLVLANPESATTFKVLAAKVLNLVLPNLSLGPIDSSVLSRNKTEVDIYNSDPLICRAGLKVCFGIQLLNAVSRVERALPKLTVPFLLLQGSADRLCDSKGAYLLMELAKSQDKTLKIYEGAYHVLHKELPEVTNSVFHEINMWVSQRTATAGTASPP
Description: as §1

[3] = molecular target: T3, ΔTM rat FAAH (Rattus norvegicus, UniProt P97612); assay: Fluorescent assay protocol for ΔTM rat FAAH (AAMCA substrate); details: 15 min preincubation, read-out: IC50 rFAAH
T3 construct: Preparation of Transmembrane Domain-Deleted Rat FAAH (ΔTM rFAAH); made in house; host or cells: E. coli
T3 sequence (P97612 30-579 limits assumed): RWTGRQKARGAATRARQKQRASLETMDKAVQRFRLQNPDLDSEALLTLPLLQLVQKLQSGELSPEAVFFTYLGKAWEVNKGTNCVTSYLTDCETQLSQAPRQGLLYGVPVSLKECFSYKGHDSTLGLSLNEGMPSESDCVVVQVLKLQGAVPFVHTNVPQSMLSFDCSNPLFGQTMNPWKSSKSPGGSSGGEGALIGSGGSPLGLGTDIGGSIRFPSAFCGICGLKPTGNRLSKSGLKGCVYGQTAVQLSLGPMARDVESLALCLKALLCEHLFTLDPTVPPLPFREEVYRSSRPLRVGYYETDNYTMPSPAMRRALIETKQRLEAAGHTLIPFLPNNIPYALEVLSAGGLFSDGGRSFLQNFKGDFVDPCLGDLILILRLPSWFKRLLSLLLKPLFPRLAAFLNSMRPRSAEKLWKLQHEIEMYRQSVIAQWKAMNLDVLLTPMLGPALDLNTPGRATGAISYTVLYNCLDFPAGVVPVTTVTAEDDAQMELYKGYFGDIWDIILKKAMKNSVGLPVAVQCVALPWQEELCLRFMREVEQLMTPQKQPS
Description: Procedure was followed as described for hMAGL, except that arachidonoyl-methyl coumarin amide (AAMCA) was used as fluorigenic substrate. […] For the screening assay, 3 concentrations (1 μM, 10 μM, and 100 μM) of test compounds, 15 μg of ΔTM rFAAH and assay buffer were pre-incubated for 15 min at 25° C. […] The fluorescence reading at the 3 hour time point (linear enzyme kinetics) was used to calculate percent inhibition based on control assays without inhibitor present. All FAAH assays were performed in triplicate for each inhibitor concentration, and IC50 values determined using Prizm software (GraphPad Software, Inc.).

[4] = molecular target: T4, Human FAAH (MBPΔTMhFAAH) (Homo sapiens, UniProt O00519); assay: Fluorescent assay protocol for hFAAH; details: human FAAH (MBP fusion, ΔTM), procedure as for rFAAH
T4 construct: made in house; host or cells: E. coli (pMALcE4 vector)
T4 sequence (O00519 30-579 limits assumed): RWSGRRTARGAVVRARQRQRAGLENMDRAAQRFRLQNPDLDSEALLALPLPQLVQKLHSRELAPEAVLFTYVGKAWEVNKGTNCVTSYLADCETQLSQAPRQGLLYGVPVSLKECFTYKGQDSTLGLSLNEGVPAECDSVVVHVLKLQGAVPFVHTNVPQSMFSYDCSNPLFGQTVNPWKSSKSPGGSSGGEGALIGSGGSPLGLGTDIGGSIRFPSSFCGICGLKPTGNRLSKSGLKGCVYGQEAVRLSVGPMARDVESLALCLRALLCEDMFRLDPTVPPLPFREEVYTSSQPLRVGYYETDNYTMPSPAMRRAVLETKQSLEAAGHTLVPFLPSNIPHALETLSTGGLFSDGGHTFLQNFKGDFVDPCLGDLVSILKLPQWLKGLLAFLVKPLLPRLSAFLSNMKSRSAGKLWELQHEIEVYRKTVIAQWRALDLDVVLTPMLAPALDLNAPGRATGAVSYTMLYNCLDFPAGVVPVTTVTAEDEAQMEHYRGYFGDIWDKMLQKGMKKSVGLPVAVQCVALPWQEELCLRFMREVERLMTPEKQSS
Description: Human FAAH without putative transmembrane domain following maltose binding protein was expressed in E. coli cells using pMALcE4 vector Alapafuja et al J. Med. Chem. (2012) 55: 10074-89.
Procedure was followed as described for hMAGL, except that arachidonoyl-methyl coumarin amide (AAMCA) was used as fluorigenic substrate. Compounds were diluted in 50:50 DMSO/assay buffer (50 mM HEPES, 1 mM EDTA, 0.1% BSA, pH 7.4) so as to have a final DMSO concentration below 8% in each reaction. For the screening assay, 3 concentrations (1 μM, 10 μM, and 100 μM) of test compounds, 15 μg of ΔTM rFAAH and assay buffer were pre-incubated for 15 min at 25° C. AAMCA (20 μM, 2×Km) was added prior to incubation at 25° C. and kinetic fluorescence reading every 20 minutes (λex=360/λem=460) for 4 hours on a BioTek Synergy HT Microplate Reader (BioTek Instruments, Winooski, Vt.). The fluorescence reading at the 3 hour time point (linear enzyme kinetics) was used to calculate percent inhibition based on control assays without inhibitor present. All FAAH assays were performed in triplicate for each inhibitor concentration, and IC50 values determined using Prizm software (GraphPad Software, Inc.).
Procedure was followed as described for rFAAH.

SMILES	IC50 [1] [nM]	IC50 [2] [nM]	IC50 [3] [nM]	IC50 [4] [nM]
CC1CN(c2ccccc2)CCN1C(=O)Oc1cccc(N2CCS(=O)(=O)CC2)c1 (stereo not drawn) [Example 73, 3-(1,1-dioxidothiomorpholino)phenyl 2-methyl-4-phenylpiperazine-1-carboxylate]	10 to 100	10 to 100	> 1000	> 1000
O=C(N1CC(N2CCC(c3ccccc3)CC2)C1)n1cccn1 [Example 89, (3-(4-Phenylpiperidin-1-yl)azetidin-1-yl)(1H-pyrazol-1-yl)methanone]	10 to 100	10 to 100	10 to 100	10 to 100
N#Cc1cccc(OC(=O)N2CCC(=C(c3ccccc3)c3ccccc3)CC2)c1 [Example 47, 3-cyanophenyl 4-(diphenylmethylene)piperidine-1-carboxylate]	> 1000	> 1000	10 to 100	10 to 100
N#Cc1cccc(-c2cccc(NC(=O)N3CCN(Cc4ccc5ccccc5n4)CC3)c2)c1 [Example 13, N-(3′-cyano-[1,1′-biphenyl]-3-yl)-4-(quinolin-2-ylmethyl)piperazine-1-carboxamide]	> 1000	> 1000	10 to 100	10 to 100
O=C(N1C[C@@H]2C[C@H]1CN2c1ccccn1)n1cnc(-c2ccccc2)c1 [Example 96, (4-phenyl-1H-imidazol-1-yl)((1S,4S)-5-(pyridin-2-yl)-2,5-diazabicyclo[2.2.1]heptan-2-yl)methanone]	> 1000	> 1000	10 to 100	10 to 100
O=C(N1CCN(C(c2ccc(F)cc2)c2ccc(F)cc2)CC1)n1cnc(Br)c1 [Example 28, (4-(bis(4-fluorophenyl)methyl)piperazin-1-yl)(4-bromo-1H-imidazol-1-yl)methanone]	> 1000	> 1000	110 to 1000	110 to 1000
NC(=O)c1cccc(-c2cccc(NC(=O)N3C[C@@H]4C[C@H]3CN4Cc3ccc4ccccc4n3)c2)c1 [Example 92, (1S,4S)—N-(3′-carbamoyl-[1,1′-biphenyl]-3-yl)-5-(quinolin-2-ylmethyl)-2,5-diazabicyclo[2.2.1]heptane-2-carboxamide]	> 1000	> 1000	> 1000	> 1000
N#Cc1cccc(OC(=O)N2CCN(C(c3ccccc3)C3CCCC3)CC2)c1 (stereo not drawn) [Example 37, 3-cyanophenyl 4-(cyclopentyl(phenyl)methyl)piperazine-1-carboxylate]			10 to 100	10 to 100
O=C(Nc1cccc(N2CCS(=O)(=O)CC2)c1)N1CCC(c2ccccc2)CC1 [Example 68, N-(3-(1,1-dioxidothiomorpholino)phenyl)-4-phenylpiperidine-1-carboxamide]	110 to 1000	110 to 1000	> 1000	> 1000
Cc1ccc(S(=O)(=O)N2CCN(C(=O)Oc3ccc(Br)cc3)CC2)cc1 [Example 64, 4-bromophenyl 4-tosylpiperazine-1-carboxylate]	10 to 100	10 to 100	> 1000	> 1000
O=C(Oc1cccc(Br)c1)N1CC(OCc2ccc(Cl)cc2)C1 [Example 76, 3-Bromophenyl 3-(4-chlorobenzyloxy)azetidine-1-carboxylate]	110 to 1000	110 to 1000	10 to 100	10 to 100
N#Cc1cccc(OC(=O)N2CCC(OC(c3ccccc3)c3ccccc3)CC2)c1 [Example 58, 3-cyanophenyl 4-(benzhydryloxy)piperidine-1-carboxylate]			> 1000	> 1000
N#Cc1cccc(OC(=O)N2CCN(C(c3ccc(F)cc3)c3ccc(F)cc3)CC2)c1 [Example 40, 3-cyanophenyl 4-(bis(4-fluorophenyl)methyl)piperazine-1-carboxylate]			> 1000	> 1000
CC(C)C(c1ccccc1)N1CCN(C(=O)Oc2cccc(C#N)c2)CC1 (stereo not drawn) [Example 35, 3-Cyanophenyl 4-(2-methyl-1-phenylpropyl)piperazine-1-carboxylate]		> 1000	> 1000	> 1000
N#Cc1cc(O)cc(OC(=O)N2CCC(C(c3ccccc3)c3ccccc3)CC2)c1 [Example 50, 3-cyano-5-hydroxyphenyl 4-benzhydrylpiperidine-1-carboxylate]			> 1000	> 1000
N#Cc1cccc(OC(=O)N2CCN(C(c3ccccc3)c3ccccc3)CC2)c1 [Example 44, 3-Cyanophenyl 4-benzhydrylpiperazine-1-carboxylate]			10 to 100	10 to 100
N#Cc1cccc(OC(=O)N2CCN(C3c4ccccc4-c4ccccc43)CC2)c1 [Example 41, 3-cyanophenyl 4-(9H-fluoren-9-yl)piperazine-1-carboxylate]			110 to 1000	110 to 1000
N#Cc1ccc(F)c(OC(=O)N2CCC(C(c3ccccc3)c3ccccc3)CC2)c1 [Example 49, 5-cyano-2-fluorophenyl 4-benzhydrylpiperidine-1-carboxylate]			> 1000	> 1000
